Patent publication US20260132127A1, “NOVEL SPIRO COMPOUND” (MITSUBISHI TANABE PHARMA CORPORATION, priority 2021, published 2026)

The compounds below were run against T1, human TRH-DE (Homo sapiens, UniProt Q9UKU6) (assay: TRH-DE inhibition test (RapidFire MS measurement of product Cyclo (His-Pro))). Details: membrane fraction of Expi 293 cells expressing human TRH-DE; 10 μM TRH substrate; room temperature, 2 hours; 16-point concentration test.
T1 construct: expressed in transfected cells; host or cells: Expi 293 cells (transient expression), membrane fraction
T1 sequence (Q9UKU6 1-1069): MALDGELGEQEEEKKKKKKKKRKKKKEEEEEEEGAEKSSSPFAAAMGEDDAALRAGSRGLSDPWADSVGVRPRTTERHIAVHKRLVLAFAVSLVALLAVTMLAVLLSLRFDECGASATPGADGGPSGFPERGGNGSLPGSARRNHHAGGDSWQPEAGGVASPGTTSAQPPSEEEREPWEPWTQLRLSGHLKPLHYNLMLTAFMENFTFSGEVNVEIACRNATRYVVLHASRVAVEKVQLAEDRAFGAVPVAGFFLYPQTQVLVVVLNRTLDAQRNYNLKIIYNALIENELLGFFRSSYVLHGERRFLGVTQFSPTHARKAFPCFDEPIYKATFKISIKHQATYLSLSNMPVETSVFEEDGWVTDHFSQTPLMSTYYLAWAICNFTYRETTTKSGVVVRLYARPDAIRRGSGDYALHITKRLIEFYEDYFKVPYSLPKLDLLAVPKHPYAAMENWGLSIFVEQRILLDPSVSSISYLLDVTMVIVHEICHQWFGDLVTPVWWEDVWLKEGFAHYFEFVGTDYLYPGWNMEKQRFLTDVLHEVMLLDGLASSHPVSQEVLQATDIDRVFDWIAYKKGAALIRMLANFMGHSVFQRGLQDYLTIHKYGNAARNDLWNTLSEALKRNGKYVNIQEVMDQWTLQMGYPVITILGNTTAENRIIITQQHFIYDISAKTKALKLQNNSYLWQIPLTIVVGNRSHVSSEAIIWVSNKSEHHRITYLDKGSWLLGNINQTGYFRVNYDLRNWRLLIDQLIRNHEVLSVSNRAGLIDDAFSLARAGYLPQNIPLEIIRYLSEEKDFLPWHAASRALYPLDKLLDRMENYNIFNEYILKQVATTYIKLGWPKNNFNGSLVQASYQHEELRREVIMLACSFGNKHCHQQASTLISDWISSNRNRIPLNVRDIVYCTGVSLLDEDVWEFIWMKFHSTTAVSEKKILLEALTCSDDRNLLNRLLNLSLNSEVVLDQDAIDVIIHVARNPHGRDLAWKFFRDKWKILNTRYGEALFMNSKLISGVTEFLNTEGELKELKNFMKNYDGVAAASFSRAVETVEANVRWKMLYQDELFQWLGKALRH
Type: biochemical
Description: The compounds described in “1. […] The enzyme inhibitory activity of each of the compounds was evaluated by measuring the amount of the product Cyclo (His-Pro) of the enzyme reaction using a RapidFire RF 365 HTMS system (manufactured by Agilent Technologies, Inc.) connected to a triple quadrupole mass spectrometer (API 4000, manufactured by SCIEX). A membrane fraction prepared from Expi 293 cells transiently expressing human TRH-DE was used as an enzyme. The membrane fraction was suspended in 4 μg/ml of a reaction buffer (50 mM sodium phosphate (pH 7.4), 25 mM NaCl, 0.01% Triton […], and 200 μM bacitracin) and mixed with the test compound at each concentration. 10 μM […]), which was a substrate, was added, and the mixture was reacted at room temperature for 2 hours. The reaction was stopped in the same amount of a solution of acetonitrile:methanol (1:1) containing 1 μM of the stable isotope Cyclo ([…]) as an internal standard, and the supernatant was collected after centrifugation. In the RapidFire RF 365 HTMS system, a portion of the supernatant was aspirated, loaded onto a Graphic Carbon column (manufactured by Agilent Technologies, Inc.) with a buffer A (water, 0.09% formic acid, 0.01% trifluoroacetic acid) and washed with ultrapure water. Next, washing was performed with acetonitrile. The contents in the column were eluted with a buffer B (80% acetonitrile, 0.09% formic acid, 0.01% trifluoroacetic acid) and injected into a mass spectrometer for analysis. […] The ESI voltage was set to 5,500 V and the temperature was set to 650° C. For the calculation of the inhibition rate, a Ratio value corrected by dividing the product amount by the internal standard amount was used. The inhibition rate (%) was calculated by % Inhibition={1-(Ratio value of sample-Ratio value of blank)/(Ratio value of control-Ratio value of blank)}×100. The IC50 value was calculated from the concentration reactivity test at 16 points.

Row | SMILES | IC50
1 | CC1c2cc(F)cnc2C(=O)N1C1CC2(C1)CN(S(=O)(=O)c1ccccc1F)C2 (racemic) [Example 292] | 154 nM
2 | Cc1cnc2c(c1)C(C)N(C1CC3(C1)CN(S(=O)(=O)c1ccccc1F)C3)C2=O (racemic) [Example 293] | 121 nM
3 | COc1ccc2c(n1)C(=O)N(C1CC3(C1)CN(S(=O)(=O)c1ccccc1F)C3)C2C (racemic) [Example 294] | 118 nM
4 | CC1c2cnccc2C(=O)N1C1CC2(C1)CN(S(=O)(=O)c1ccccc1F)C2 (racemic) [Example 295] | 355 nM
5 | C[C@@H]1CC[C@H](C)N(C2CC3(C2)CN(S(=O)(=O)c2ccccc2F)C3)C(=O)C1 (racemic) [Example 436, (4R*,7S*)-1-[2-(2-fluorophenyl)sulfonyl-2-azaspiro[3.3]heptan-6-yl]-4,7-dimethylazepan-2-one] | 33 nM
6 | C[C@@H]1CC[C@@H](C)N(C2CC3(C2)CN(S(=O)(=O)c2ccccc2F)C3)C(=O)C1 (racemic) [Example 437, (4R*,7R*)-1-[2-(2-fluorophenyl)sulfonyl-2-azaspiro[3.3]heptan-6-yl]-4,7-dimethylazepan-2-one] | 292 nM
7 | CC1CCC(=O)N(C2CC3(C2)CN(S(=O)(=O)c2ccccc2F)C3)C(C)C1 (racemic) [Example 438] | 126 nM
8 | CC1CCC(=O)N(C2CC3(C2)CN(S(=O)(=O)c2ccccc2F)C3)C(C)C1 (racemic) [Example 439] | 124 nM
9 | CC1CCCC(=O)N1C1CC2(C1)CN(S(=O)(=O)c1ccccc1F)C2 (racemic) [Example 440, 1-[2-(2-fluorophenyl)sulfonyl-2-azaspiro[3.3]heptan-6-yl]-6-methylpiperidin-2-one] | 199 nM
10 | CC1COc2cccnc2C(=O)N1C1CC2(C1)CN(S(=O)(=O)c1ccccc1F)C2 (single isomer, unassigned) [Example 349] | 507 nM
11 | CC1CCc2nc(C(F)(F)F)sc2C(=O)N1C1CC2(C1)CN(S(=O)(=O)c1ccccc1F)C2 (single isomer, unassigned) [Example 353] | 66 nM
12 | CC1Cc2nc(C(F)(F)F)ccc2C(=O)N1C1CC2(C1)CN(S(=O)(=O)c1ccccc1F)C2 (single isomer, unassigned) [Example 356] | 44 nM
13 | CC1c2ccccc2C(=O)N1C1CC2(C1)CN(S(=O)(=O)c1ccccc1F)C2 (single isomer, unassigned) [Example 358] | 89 nM
14 | CC1c2ccccc2C(=O)N1C1CC2(C1)CN(S(=O)(=O)c1ccccc1F)C2 (single isomer, unassigned) [Example 359] | 454 nM
15 | CC1c2cccnc2C(=O)N1C1CC2(C1)CN(S(=O)(=O)c1ccccc1F)C2 (single isomer, unassigned) [Example 360] | 86 nM
16 | CC1c2cc(F)cnc2C(=O)N1C1CC2(C1)CN(S(=O)(=O)c1ccccc1F)C2 (single isomer, unassigned) [Example 362] | 182 nM
17 | CC1c2cc(C(F)(F)F)cnc2C(=O)N1C1CC2(C1)CN(S(=O)(=O)c1ccccc1F)C2 (single isomer, unassigned) [Example 365] | 160 nM

Now those with a lower IC50, led by results:

Row | IC50 | SMILES
18 | 2 nM | C[C@@H]1COc2nc(N3C[C@H]4C[C@H]4C3)ncc2C(=O)N1C1CC2(C1)CN(S(=O)(=O)c1ccccc1F)C2 (relative stereo) [Example 168, (7R)-2-[(1S*,5R*)-3-azabicyclo[3.1.0]hexan-3-yl]-6-[2-(2-fluorophenyl)sulfonyl]-2-azaspiro[3.3]heptan-6-yl]-7-methyl-7,8-dihydropyrimido[5,4-f][1,4]oxazepin-5-one]
19 | 5 nM | CC1COc2cccnc2C(=O)N1C1CC2(C1)CN(S(=O)(=O)c1ccccc1F)C2 (single isomer, unassigned) [Example 348]
20 | 11 nM | CC1CCc2nc(C(F)(F)F)sc2C(=O)N1C1CC2(C1)CN(S(=O)(=O)c1ccccc1F)C2 (single isomer, unassigned) [Example 352]
21 | 2 nM | CC1CCc2nc(C3CC3)sc2C(=O)N1C1CC2(C1)CN(S(=O)(=O)c1ccccc1F)C2 (single isomer, unassigned) [Example 354]
22 | 17 nM | CC1CCc2nc(C3CC3)sc2C(=O)N1C1CC2(C1)CN(S(=O)(=O)c1ccccc1F)C2 (single isomer, unassigned) [Example 355]
23 | 10 nM | C[C@@H]1COc2nc(OC3CC(C#N)C3)ncc2C(=O)N1C1CC2(C1)CN(S(=O)(=O)c1ccccc1F)C2 (stereo in doubt) [Example 379]
24 | 13 nM | C[C@@H]1COc2nc(Cl)ncc2C(=O)N1C1CC2(C1)CN(S(=O)(=O)c1ccccc1F)C2 [Example 6]
25 | 13 nM | C[C@@H]1COc2nccnc2C(=O)N1C1CC2(C1)CN(S(=O)(=O)c1ccccc1F)C2 [Example 8, (7R)-8-[2-(2-fluorophenyl)sulfonyl-2-azaspiro[3.3]heptan-6-yl]-7-methyl-6,7-dihydropyrazino[2,3-f][1,4]oxazepin-9-one]
26 | 4 nM | C[C@@H]1COc2cc(F)cnc2C(=O)N1C1CC2(C1)CN(S(=O)(=O)c1ccccc1F)C2 [Example 11]
27 | 9 nM | C[C@@H]1COc2ccc(Cl)nc2C(=O)N1C1CC2(C1)CN(S(=O)(=O)c1ccccc1F)C2 [Example 12]
28 | 2 nM | C[C@@H]1COc2cc(Cl)cnc2C(=O)N1C1CC2(C1)CN(S(=O)(=O)c1ccccc1F)C2 [Example 13]
29 | 8 nM | C[C@@H]1COc2ccc(C(F)(F)F)nc2C(=O)N1C1CC2(C1)CN(S(=O)(=O)c1ccccc1F)C2 [Example 17]
30 | 1 nM | C[C@@H]1COc2cc(Br)cnc2C(=O)N1C1CC2(C1)CN(S(=O)(=O)c1ccccc1F)C2 [Example 18]
31 | 2 nM | C[C@@H]1COc2ccncc2C(=O)N1C1CC2(C1)CN(S(=O)(=O)c1ccccc1F)C2 [Example 19]
32 | 2 nM | C[C@@H]1COc2cc(Cl)ncc2C(=O)N1C1CC2(C1)CN(S(=O)(=O)c1ccccc1F)C2 [Example 22]
33 | 3 nM | C[C@@H]1COc2cc(C(F)(F)F)ncc2C(=O)N1C1CC2(C1)CN(S(=O)(=O)c1ccccc1F)C2 [Example 24]
34 | 14 nM | C[C@@H]1COc2ncc(F)cc2C(=O)N1C1CC2(C1)CN(S(=O)(=O)c1ccccc1F)C2 [Example 27]
35 | 3 nM | C[C@@H]1COc2ncc(Cl)cc2C(=O)N1C1CC2(C1)CN(S(=O)(=O)c1ccccc1F)C2 [Example 32]
36 | 15 nM | C[C@@H]1COc2ncc(C(F)(F)F)cc2C(=O)N1C1CC2(C1)CN(S(=O)(=O)c1ccccc1F)C2 [Example 33]
37 | 8 nM | C[C@@H]1COc2nc(Cl)ccc2C(=O)N1C1CC2(C1)CN(S(=O)(=O)c1ccccc1F)C2 [Example 34]
38 | 7 nM | C[C@@H]1COc2nc(OC(F)(F)F)ccc2C(=O)N1C1CC2(C1)CN(S(=O)(=O)c1ccccc1F)C2 [Example 35]
39 | 21 nM | C[C@@H]1COc2nc(Cl)c(F)cc2C(=O)N1C1CC2(C1)CN(S(=O)(=O)c1ccccc1F)C2 [Example 36]
40 | 6 nM | Cc1nc2c(cc1Br)C(=O)N(C1CC3(C1)CN(S(=O)(=O)c1ccccc1F)C3)[C@H](C)CO2 [Example 37]
41 | 12 nM | C[C@@H]1COc2ncccc2C(=O)N1C1CC2(C1)CN(S(=O)(=O)c1ccccc1F)C2 [Example 38]
42 | 20 nM | CC[C@@H]1COc2ncccc2C(=O)N1C1CC2(C1)CN(S(=O)(=O)c1ccccc1F)C2 [Example 39]
